# Experimental data reported in ChEMBL document CHEMBL5465560, “Selectivity Literature for EUbOPEN Chemogenomic Library” (2024).
# Experiments:
# [1] = molecular target: T1, Tyrosine-protein kinase JAK3 (Homo sapiens) (UniProt P52333); assay: Selectivity interaction (Upstate Kinase Profiler service (Millipore)) EUB0000056c JAK3; conditions: at 1 µM
# T1 sequence (whole entry): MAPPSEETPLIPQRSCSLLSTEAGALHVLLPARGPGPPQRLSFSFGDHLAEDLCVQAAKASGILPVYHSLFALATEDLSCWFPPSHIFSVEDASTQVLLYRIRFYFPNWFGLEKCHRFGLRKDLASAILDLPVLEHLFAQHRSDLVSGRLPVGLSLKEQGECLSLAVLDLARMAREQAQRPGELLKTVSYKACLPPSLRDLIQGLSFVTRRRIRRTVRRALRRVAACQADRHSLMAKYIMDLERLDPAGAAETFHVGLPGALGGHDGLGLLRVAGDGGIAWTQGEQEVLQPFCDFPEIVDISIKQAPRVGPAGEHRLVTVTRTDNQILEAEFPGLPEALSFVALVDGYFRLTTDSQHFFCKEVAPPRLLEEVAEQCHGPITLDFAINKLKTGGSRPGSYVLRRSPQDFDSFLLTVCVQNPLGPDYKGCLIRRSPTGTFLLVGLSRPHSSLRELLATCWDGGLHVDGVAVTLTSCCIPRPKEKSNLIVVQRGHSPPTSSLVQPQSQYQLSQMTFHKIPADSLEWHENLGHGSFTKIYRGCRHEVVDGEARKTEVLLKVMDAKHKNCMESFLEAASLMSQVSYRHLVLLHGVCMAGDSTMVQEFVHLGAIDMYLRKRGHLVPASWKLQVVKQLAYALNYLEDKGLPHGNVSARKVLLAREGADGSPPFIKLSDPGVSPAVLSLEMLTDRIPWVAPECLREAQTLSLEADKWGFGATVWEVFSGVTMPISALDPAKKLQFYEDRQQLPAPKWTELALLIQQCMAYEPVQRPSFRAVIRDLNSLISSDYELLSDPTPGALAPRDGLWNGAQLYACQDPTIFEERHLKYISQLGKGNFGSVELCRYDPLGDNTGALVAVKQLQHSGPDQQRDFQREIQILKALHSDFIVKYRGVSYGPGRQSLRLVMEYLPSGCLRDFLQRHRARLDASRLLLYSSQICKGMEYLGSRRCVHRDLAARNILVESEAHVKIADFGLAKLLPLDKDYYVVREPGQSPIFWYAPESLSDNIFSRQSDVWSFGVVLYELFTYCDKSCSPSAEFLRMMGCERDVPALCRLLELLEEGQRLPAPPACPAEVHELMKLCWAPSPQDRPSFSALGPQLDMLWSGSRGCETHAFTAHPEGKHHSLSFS
# [2] = molecular target: RAC-gamma serine/threonine-protein kinase (Homo sapiens, UniProt Q9Y243); assay: Selectivity interaction (Upstate Kinase Profiler service (Millipore)) EUB0000056c AKT3; conditions: at 1 µM
# [3] = molecular target: Serine/threonine-protein kinase 25 (Homo sapiens) (UniProt O00506); assay: Selectivity interaction (ProQinase) EUB0000171b STK25
# [4] = molecular target: CDK1/Cyclin A (Homo sapiens) (UniProt P06493+P20248); assay: (§1) Selectivity interaction (ProQinase) EUB0000171b CDK1; assay type: protein-complex assay
# [5] = molecular target: CDK1/Cyclin E (Homo sapiens) (UniProt P06493+P24864); assay: as §1; assay type: protein-complex assay
# [6] = molecular target: Cyclin-dependent kinase 1/cyclin B1 (Homo sapiens) (UniProt P06493+P14635); assay: as §1; assay type: protein-complex assay
# [7] = molecular target: T2, Prostaglandin G/H synthase 2 (Homo sapiens) (UniProt P35354); assay: Selectivity interaction (Panel of kinases, GPCRs, ion channels and transporters (enzymatic assay)) EUB0000266bCl PTGS2
# T2 sequence (whole entry): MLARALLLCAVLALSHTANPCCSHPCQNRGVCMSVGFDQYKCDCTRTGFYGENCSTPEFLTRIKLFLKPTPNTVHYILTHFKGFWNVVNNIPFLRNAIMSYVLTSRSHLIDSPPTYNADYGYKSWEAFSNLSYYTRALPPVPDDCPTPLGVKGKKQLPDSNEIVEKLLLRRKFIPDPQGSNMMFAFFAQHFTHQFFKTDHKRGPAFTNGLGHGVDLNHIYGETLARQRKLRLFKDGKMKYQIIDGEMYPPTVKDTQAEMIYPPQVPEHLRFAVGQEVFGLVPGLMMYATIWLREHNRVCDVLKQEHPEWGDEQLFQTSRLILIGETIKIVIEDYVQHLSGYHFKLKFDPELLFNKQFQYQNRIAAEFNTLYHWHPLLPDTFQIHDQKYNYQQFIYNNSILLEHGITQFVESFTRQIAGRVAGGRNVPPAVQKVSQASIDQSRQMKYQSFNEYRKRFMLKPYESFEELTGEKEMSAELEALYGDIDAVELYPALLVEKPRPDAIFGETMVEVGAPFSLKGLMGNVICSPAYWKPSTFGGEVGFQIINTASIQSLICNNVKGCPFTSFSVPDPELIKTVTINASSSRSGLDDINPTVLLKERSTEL
# [8] = molecular target: Proto-oncogene tyrosine-protein kinase ROS (Homo sapiens) (UniProt P08922); assay: Selectivity interaction (SelectScreen profiling (Invitrogen)) EUB0000607a ROS1; conditions: at 2 µM
# [9] = molecular target: Activin receptor type-2A (Homo sapiens) (UniProt P27037); assay: Selectivity interaction (KinomeScan (DiscoverX)) EUB0001049a ACVR2A; conditions: at 1 µM
# [10] = molecular target: Dual specificity testis-specific protein kinase 1 (Homo sapiens) (UniProt Q15569); assay: Selectivity interaction (KinomeScan (DiscoverX)) EUB0000618a TESK1; conditions: at 10 µM
# [11] = molecular target: Eukaryotic translation initiation factor 2-alpha kinase 1 (Homo sapiens) (UniProt Q9BQI3); assay: Selectivity interaction (KinomeScan (DiscoverX)) EUB0000618a EIF2AK1; conditions: at 10 µM
# [12] = molecular target: T3, Uncharacterized serine/threonine-protein kinase SBK3 (Homo sapiens) (UniProt P0C264); assay: Selectivity interaction (KinomeScan (DiscoverX)) EUB0000618a SBK3; conditions: at 10 µM
# T3 sequence (whole entry): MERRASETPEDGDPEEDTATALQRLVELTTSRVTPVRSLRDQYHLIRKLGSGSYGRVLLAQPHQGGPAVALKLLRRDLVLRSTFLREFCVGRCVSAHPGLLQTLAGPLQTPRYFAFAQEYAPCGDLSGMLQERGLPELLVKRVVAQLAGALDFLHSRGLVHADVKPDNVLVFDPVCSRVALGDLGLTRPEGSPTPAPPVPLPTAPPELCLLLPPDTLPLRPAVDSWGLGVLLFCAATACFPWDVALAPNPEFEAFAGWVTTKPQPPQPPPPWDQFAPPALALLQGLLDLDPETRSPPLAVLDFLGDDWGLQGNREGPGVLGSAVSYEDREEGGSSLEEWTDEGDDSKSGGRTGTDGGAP
# [13] = molecular target: Prostacyclin receptor (Homo sapiens) (UniProt P43119); assay: Selectivity interaction (Eurofins CEREP Diversity Profile (receptors and ion channels)) EUB0000279b PTGIR; conditions: at 10 µM
# [14] = molecular target: Dual specificity tyrosine-phosphorylation-regulated kinase 1A (Homo sapiens, UniProt Q13627); assay: Selectivity interaction (KinomeScan (DiscoverX)) EUB0001619a DYRK1A; conditions: at 1 µM
# Sequence of Serine/threonine-protein kinase 25 (Homo sapiens) (O00506 whole entry, looked up): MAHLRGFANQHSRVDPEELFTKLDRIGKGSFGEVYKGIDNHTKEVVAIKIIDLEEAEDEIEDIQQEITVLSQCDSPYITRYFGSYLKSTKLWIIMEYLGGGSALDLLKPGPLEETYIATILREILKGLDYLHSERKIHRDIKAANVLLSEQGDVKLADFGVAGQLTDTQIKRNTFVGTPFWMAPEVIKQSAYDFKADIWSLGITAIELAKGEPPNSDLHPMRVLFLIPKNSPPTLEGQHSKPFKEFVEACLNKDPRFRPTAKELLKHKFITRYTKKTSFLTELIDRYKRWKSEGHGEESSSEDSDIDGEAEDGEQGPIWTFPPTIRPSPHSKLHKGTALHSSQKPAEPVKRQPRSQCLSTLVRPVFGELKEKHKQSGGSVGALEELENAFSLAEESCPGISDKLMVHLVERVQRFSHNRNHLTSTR
# Sequence of CDK1/Cyclin A (Homo sapiens) (P06493 whole entry, looked up): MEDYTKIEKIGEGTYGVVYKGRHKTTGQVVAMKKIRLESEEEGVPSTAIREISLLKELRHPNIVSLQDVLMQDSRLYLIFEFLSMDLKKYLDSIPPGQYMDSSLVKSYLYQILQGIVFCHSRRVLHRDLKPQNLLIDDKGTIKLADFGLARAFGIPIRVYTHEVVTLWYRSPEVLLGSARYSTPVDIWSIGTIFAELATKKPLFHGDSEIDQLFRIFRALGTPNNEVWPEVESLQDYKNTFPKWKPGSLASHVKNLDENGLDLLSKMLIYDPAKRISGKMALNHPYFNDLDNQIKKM
# Sequence of CDK1/Cyclin A (Homo sapiens) (P20248 whole entry, looked up): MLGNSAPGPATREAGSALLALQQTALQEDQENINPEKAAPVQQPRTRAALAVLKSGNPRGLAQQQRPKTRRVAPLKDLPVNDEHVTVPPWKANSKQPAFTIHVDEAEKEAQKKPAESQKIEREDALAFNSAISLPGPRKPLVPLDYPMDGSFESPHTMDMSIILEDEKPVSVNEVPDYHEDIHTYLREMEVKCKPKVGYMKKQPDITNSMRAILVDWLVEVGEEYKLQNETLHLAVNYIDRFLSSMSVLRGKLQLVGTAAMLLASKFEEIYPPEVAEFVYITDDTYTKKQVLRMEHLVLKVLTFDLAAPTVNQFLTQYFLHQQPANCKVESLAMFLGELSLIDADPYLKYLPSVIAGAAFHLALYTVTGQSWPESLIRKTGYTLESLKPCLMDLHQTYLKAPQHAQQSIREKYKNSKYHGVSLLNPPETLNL
# Sequence of Cyclin-dependent kinase 1/cyclin B1 (Homo sapiens) (P06493 whole entry, looked up): as the sequence (P06493 whole entry, looked up) above
# Sequence of Cyclin-dependent kinase 1/cyclin B1 (Homo sapiens) (P14635 whole entry, looked up): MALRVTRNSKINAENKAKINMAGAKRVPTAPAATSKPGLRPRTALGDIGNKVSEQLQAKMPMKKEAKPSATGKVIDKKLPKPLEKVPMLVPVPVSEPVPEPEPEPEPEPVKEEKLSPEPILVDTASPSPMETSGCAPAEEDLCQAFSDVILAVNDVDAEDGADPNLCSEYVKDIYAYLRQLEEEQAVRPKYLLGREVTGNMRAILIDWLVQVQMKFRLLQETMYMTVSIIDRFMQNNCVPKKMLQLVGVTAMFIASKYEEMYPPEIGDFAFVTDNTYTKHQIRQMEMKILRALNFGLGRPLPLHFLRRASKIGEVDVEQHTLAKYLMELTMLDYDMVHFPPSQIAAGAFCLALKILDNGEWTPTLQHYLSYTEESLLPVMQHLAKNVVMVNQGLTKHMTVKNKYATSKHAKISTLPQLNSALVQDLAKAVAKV
# Sequence of CDK1/Cyclin E (Homo sapiens) (P06493 whole entry, looked up): as the sequence (P06493 whole entry, looked up) above
# Sequence of CDK1/Cyclin E (Homo sapiens) (P24864 whole entry, looked up): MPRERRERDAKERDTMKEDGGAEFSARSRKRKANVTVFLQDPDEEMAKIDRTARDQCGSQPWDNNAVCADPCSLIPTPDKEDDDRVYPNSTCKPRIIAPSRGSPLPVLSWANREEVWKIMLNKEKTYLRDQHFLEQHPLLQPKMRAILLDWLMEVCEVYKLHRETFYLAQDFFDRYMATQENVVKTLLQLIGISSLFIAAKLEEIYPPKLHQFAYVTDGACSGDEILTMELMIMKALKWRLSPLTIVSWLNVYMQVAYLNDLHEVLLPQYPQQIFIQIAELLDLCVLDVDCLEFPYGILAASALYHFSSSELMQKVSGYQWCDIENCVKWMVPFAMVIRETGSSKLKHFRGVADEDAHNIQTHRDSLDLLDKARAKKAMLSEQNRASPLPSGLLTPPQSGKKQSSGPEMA
# Sequence of RAC-gamma serine/threonine-protein kinase (Q9Y243 whole entry): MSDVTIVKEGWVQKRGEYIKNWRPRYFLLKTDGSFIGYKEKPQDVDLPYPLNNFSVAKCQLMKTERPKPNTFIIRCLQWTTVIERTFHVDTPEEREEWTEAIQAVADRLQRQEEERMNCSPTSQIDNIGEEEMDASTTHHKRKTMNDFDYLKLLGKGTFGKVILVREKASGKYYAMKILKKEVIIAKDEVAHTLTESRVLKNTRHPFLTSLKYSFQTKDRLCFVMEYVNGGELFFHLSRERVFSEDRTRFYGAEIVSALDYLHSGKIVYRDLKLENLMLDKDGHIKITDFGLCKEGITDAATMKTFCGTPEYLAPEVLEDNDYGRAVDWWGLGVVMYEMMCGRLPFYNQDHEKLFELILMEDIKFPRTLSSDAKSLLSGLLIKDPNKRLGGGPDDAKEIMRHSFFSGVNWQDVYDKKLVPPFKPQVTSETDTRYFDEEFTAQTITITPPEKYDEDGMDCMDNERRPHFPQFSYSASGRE
# Sequence of Activin receptor type-2A (Homo sapiens) (P27037 whole entry): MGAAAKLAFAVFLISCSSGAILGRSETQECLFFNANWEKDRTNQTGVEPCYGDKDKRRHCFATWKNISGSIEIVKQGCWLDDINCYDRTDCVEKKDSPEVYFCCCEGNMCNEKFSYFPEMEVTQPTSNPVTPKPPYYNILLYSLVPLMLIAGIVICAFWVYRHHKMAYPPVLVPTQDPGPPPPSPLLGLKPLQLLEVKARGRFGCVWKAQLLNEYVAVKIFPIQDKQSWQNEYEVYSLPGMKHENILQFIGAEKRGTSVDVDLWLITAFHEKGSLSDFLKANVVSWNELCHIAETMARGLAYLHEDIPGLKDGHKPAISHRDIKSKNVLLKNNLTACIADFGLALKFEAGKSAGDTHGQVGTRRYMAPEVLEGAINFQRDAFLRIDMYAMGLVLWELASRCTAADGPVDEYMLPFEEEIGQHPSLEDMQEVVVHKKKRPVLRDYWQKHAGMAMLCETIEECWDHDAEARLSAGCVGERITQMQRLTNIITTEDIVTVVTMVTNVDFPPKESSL
# Sequence of Eukaryotic translation initiation factor 2-alpha kinase 1 (Homo sapiens) (Q9BQI3 whole entry): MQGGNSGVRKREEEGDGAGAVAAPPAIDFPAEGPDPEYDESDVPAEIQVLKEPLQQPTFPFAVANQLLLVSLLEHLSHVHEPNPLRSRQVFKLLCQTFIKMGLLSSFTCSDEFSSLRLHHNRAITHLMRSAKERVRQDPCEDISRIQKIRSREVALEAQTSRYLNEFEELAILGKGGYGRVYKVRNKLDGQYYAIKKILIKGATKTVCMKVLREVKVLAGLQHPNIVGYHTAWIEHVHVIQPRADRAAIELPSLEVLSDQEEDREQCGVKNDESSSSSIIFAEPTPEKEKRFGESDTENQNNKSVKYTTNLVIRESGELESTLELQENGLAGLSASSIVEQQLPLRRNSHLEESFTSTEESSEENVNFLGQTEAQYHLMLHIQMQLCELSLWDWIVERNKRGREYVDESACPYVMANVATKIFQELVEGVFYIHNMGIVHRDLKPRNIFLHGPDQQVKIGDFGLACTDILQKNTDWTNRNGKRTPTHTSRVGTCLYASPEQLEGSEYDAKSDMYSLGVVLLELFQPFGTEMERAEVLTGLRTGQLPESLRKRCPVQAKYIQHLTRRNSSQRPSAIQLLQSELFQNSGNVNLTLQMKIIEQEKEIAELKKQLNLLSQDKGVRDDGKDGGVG
# Sequence of Prostacyclin receptor (Homo sapiens) (P43119 whole entry): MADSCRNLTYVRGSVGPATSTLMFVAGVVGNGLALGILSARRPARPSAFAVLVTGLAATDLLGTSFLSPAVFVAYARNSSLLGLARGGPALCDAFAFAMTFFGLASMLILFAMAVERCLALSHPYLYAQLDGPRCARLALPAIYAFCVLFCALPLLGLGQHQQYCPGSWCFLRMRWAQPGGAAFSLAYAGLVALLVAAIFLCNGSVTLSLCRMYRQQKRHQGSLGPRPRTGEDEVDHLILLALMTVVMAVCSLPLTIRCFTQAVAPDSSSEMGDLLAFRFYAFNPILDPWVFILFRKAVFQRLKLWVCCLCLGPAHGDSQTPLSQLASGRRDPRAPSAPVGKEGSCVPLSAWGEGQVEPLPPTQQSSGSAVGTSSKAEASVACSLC
structure (smiles),measurement,setting,value
Cc1ccc(-c2ccc3c(ccc4sc5c(c43)NC[C@@H](C)NC5=O)n2)cn1,% of inhibition,[1],4%
same,% of inhibition,[2],0%
C=CC(=O)Nc1cccc(C(=O)Nc2ccc(Nc3cc(-c4[nH]c(SC)nc4C)ccn3)cc2)c1,% of control,[3]; at 1 µM,88%
same,% of control,[3]; at 5 µM,95%
same,% of control,[4]; at 1 µM,89%
same,% of control,[4]; at 5 µM,79%
same,% of control,[5]; at 1 µM,90%
same,% of control,[5]; at 5 µM,74%
same,% of control,[6]; at 1 µM,94%
same,% of control,[6]; at 5 µM,77%
CCn1c(-c2nc3cc(C(=O)N4CCCC(N)C4)ccc3n2C)cc2ccccc21 (stereo not drawn),pXC50,[7],< 4 M
CNC(=O)Nc1ccc(-c2nc(N3CC4CCC(C3)O4)c3cnn(C4CCC5(CC4)OCCO5)c3n2)cc1,% of inhibition,[8],2%
COc1cc(Nc2nc(C)cc(-c3cnn4nc(OC)ccc34)n2)cc(C(F)(F)F)c1,% of control,[9],98%
O[C@H]1CC[C@H](Nc2ncc3nc(Nc4c(F)cc(F)cc4F)n([C@H]4CCOC4)c3n2)CC1,% of control,[10],78%
same,% of control,[11],100%
same,% of control,[12],100%
CC(=O)c1cc(-c2ccccc2OCC2CC2)c2ncccn12,% of control,[13],108%
N#Cc1cccc(-c2c[nH]c3ncnc(N4CCOCC4)c23)c1,% of control,[14],78%
